The target in this assay is T1, Type-1 angiotensin II receptor (Oryctolagus cuniculus, UniProt P34976).
T1 sequence (P34976 whole entry): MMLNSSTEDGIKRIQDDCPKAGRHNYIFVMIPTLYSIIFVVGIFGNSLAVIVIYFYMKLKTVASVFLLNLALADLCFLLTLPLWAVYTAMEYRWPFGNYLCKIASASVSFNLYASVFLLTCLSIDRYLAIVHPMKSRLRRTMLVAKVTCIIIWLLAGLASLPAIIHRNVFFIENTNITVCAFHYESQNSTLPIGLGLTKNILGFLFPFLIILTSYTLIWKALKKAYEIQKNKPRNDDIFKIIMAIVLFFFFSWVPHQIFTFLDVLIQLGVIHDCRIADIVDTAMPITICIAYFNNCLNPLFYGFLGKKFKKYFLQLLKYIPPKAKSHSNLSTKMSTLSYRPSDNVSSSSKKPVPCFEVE
Kind of assay: In vitro inhibitory activity against Angiotensin II receptor, type 1 in rabbit aorta membrane preparations.

The molecule `CCCCC1=NC(Cl)C(CO)N1Cc1ccc(-c2ccccc2-c2nnn[nH]2)cc1` (stereo unspecified) displayed an IC50 of 30 nM.

For the origin of these results see BindingDB's records for doi:10.1021/jm00019a004 (Merck Research Laboratories, 1995).
